Reference: ChEMBL document CHEMBL2034943, “Potentiating Metronidazole Scaffold against Resistant Trichomonas: Design, Synthesis, Biology and 3D-QSAR Analysis” (ACS Med Chem Lett, 2012)
In brackets after ≈: the same amount, converted by molar mass.

System: Trichomonas vaginalis
Experiment: Ratio of MIC for metronidazole to compound for metronidazole-resistant Trichomonas vaginalis ATCC 50143
Format: functional

In order of rising Ratio:
1. Cc1ncc([N+](=O)[O-])n1CCSC(=S)N1CCCC(C)C1 (stereo not given)  10
2. CCC1CCCCN1C(=S)SCCn1c([N+](=O)[O-])cnc1C (stereo not given)  10
3. Cc1ncc([N+](=O)[O-])n1CCSC(=S)N1CCCCC1C (stereo not given)  10
4. Cc1ncc([N+](=O)[O-])n1CCSC(=S)N1C(C)CCCC1C (stereo not given)  10
5. Cc1ncc([N+](=O)[O-])n1CCSC(=S)N1CCC(C)CC1  20

System: Trichomonas vaginalis
Experiment: Antitrichomonas activity against metronidazole-susceptible Trichomonas vaginalis
Format: functional

In order of rising MIC:
1. Cc1ncc([N+](=O)[O-])n1CCSC(=S)N1CCC(C)CC1  1.03 µM (≈ 0.338 µg/mL)
2. Cc1ncc([N+](=O)[O-])n1CCSC(=S)N1CCC(OC(=O)CN2CCCCC2)CC1  1.37 µM (≈ 0.624 µg/mL)
3. Cc1ncc([N+](=O)[O-])n1CCSC(=S)N1CCC(O)CC1  1.41 µM (≈ 0.466 µg/mL)
4. Cc1ncc([N+](=O)[O-])n1CCSC(=S)N1C(C)CCCC1C (stereo not given)  1.83 µM (≈ 0.627 µg/mL)
5. Cc1ncc([N+](=O)[O-])n1CCSC(=S)N1CCC(=O)CC1  1.89 µM (≈ 0.621 µg/mL)
6. Cc1ncc([N+](=O)[O-])n1CCSC(=S)N1CCCC(C)C1 (stereo not given)  1.9 µM (≈ 0.624 µg/mL)
7. Cc1ncc([N+](=O)[O-])n1CCSC(=S)N1CCCCC1C (stereo not given)  1.9 µM (≈ 0.624 µg/mL)
8. CCC1CCCCN1C(=S)SCCn1c([N+](=O)[O-])cnc1C (stereo not given)  3.65 µM (≈ 1.25 µg/mL)
9. Cc1ncc([N+](=O)[O-])n1CCSC(=S)N1CCC(OS(C)(=O)=O)CC1  12.4 µM (≈ 5.07 µg/mL)
10. Cc1ncc([N+](=O)[O-])n1CCSC(=S)N1CCC(OC(=O)CCl)CC1  49.3 µM (≈ 20.1 µg/mL)

System: Trichomonas vaginalis
Experiment: Ratio of MIC for metronidazole to compound for metronidazole-susceptible Trichomonas vaginalis
Format: functional

In order of falling Ratio:
1. Cc1ncc([N+](=O)[O-])n1CCSC(=S)N1CCC(C)CC1  10
2. Cc1ncc([N+](=O)[O-])n1CCSC(=S)N1CCCC(C)C1 (stereo not given)  3
3. CCC1CCCCN1C(=S)SCCn1c([N+](=O)[O-])cnc1C (stereo not given)  3
4. Cc1ncc([N+](=O)[O-])n1CCSC(=S)N1CCCCC1C (stereo not given)  3
5. Cc1ncc([N+](=O)[O-])n1CCSC(=S)N1C(C)CCCC1C (stereo not given)  3

System: not listed separately
Experiment: Toxicity against Lactobacillus jensenii ATCC 25258

With `Cc1ncc([N+](=O)[O-])n1CCSC(=S)N1CCC(OS(C)(=O)=O)CC1` the IC50 was over 1000 µg/mL.
For `Cc1ncc([N+](=O)[O-])n1CCSC(=S)N1CCC(OC(=O)CN2CCCCC2)CC1`, the IC50 was over 1000 µg/mL.
For `Cc1ncc([N+](=O)[O-])n1CCSC(=S)N1CCCC(C)C1` (stereo not given), the IC50 was over 1000 µg/mL.
`CCC1CCCCN1C(=S)SCCn1c([N+](=O)[O-])cnc1C` (stereo not given) gave an IC50 of over 1000 µg/mL.
In the case of `Cc1ncc([N+](=O)[O-])n1CCSC(=S)N1CCCCC1C` (stereo not given), the IC50 is reported as over 1000 µg/mL.
`Cc1ncc([N+](=O)[O-])n1CCSC(=S)N1CCC(C)CC1` showed an IC50 of over 1000 µg/mL.
With `Cc1ncc([N+](=O)[O-])n1CCSC(=S)N1C(C)CCCC1C` (stereo not given) the IC50 was over 1000 µg/mL.

In order of falling IC50:
1. Cc1ncc([N+](=O)[O-])n1CCSC(=S)N1CCC(OC(=O)CCl)CC1  590 µg/mL (≈ 1450 µM)
2. Cc1ncc([N+](=O)[O-])n1CCSC(=S)N1CCC(=O)CC1  380 µg/mL (≈ 1160 µM)
3. Cc1ncc([N+](=O)[O-])n1CCSC(=S)N1CCC(O)CC1  350 µg/mL (≈ 1060 µM)

System: Trichomonas vaginalis
Experiment: Antitrichomonas activity against metronidazole-resistant Trichomonas vaginalis ATCC 50143
Format: functional

In order of falling MIC:
1. Cc1ncc([N+](=O)[O-])n1CCSC(=S)N1CCC(OC(=O)CCl)CC1  246 µM (≈ 100 µg/mL)
2. Cc1ncc([N+](=O)[O-])n1CCSC(=S)N1CCC(OS(C)(=O)=O)CC1  61.3 µM (≈ 25 µg/mL)
3. Cc1ncc([N+](=O)[O-])n1CCSC(=S)N1CCC(OC(=O)CN2CCCCC2)CC1  54.9 µM (≈ 25 µg/mL)
4. Cc1ncc([N+](=O)[O-])n1CCSC(=S)N1CCC(=O)CC1  30.5 µM (≈ 10 µg/mL)
5. Cc1ncc([N+](=O)[O-])n1CCSC(=S)N1CCC(O)CC1  30.3 µM (≈ 10 µg/mL)
6. Cc1ncc([N+](=O)[O-])n1CCSC(=S)N1C(C)CCCC1C (stereo not given)  29.2 µM (≈ 10 µg/mL)
7. Cc1ncc([N+](=O)[O-])n1CCSC(=S)N1CCCC(C)C1 (stereo not given)  15.2 µM (≈ 4.99 µg/mL)
8. Cc1ncc([N+](=O)[O-])n1CCSC(=S)N1CCCCC1C (stereo not given)  15.2 µM (≈ 4.99 µg/mL)
9. CCC1CCCCN1C(=S)SCCn1c([N+](=O)[O-])cnc1C (stereo not given)  14.6 µM (≈ 5 µg/mL)
10. Cc1ncc([N+](=O)[O-])n1CCSC(=S)N1CCC(C)CC1  14.3 µM (≈ 4.7 µg/mL)

System: Spermatozoa
Experiment: Spermicidal activity against human spermatozoa assessed as immobilization measured for 60 seconds
Format: functional
Design: concentration or dose not given beside the values

In order of falling Activity:
1. Cc1ncc([N+](=O)[O-])n1CCSC(=S)N1CCC(OS(C)(=O)=O)CC1  100%
2. Cc1ncc([N+](=O)[O-])n1CCSC(=S)N1CCCC(C)C1 (stereo not given)  100%
3. CCC1CCCCN1C(=S)SCCn1c([N+](=O)[O-])cnc1C (stereo not given)  100%
4. Cc1ncc([N+](=O)[O-])n1CCSC(=S)N1CCC(OC(=O)CCl)CC1  100%
5. Cc1ncc([N+](=O)[O-])n1CCSC(=S)N1CCCCC1C (stereo not given)  100%
6. Cc1ncc([N+](=O)[O-])n1CCSC(=S)N1CCC(O)CC1  100%
7. Cc1ncc([N+](=O)[O-])n1CCSC(=S)N1CCC(C)CC1  100%
8. Cc1ncc([N+](=O)[O-])n1CCSC(=S)N1C(C)CCCC1C (stereo not given)  100%

`Cc1ncc([N+](=O)[O-])n1CCSC(=S)N1CCC(OC(=O)CN2CCCCC2)CC1` showed an Activity of under 100%.
Work on `Cc1ncc([N+](=O)[O-])n1CCSC(=S)N1CCC(=O)CC1` yielded an Activity of under 100%.

System: HeLa
Experiment: Cytotoxicity against human HeLa cells
Format: cell-based

Going from `Cc1ncc([N+](=O)[O-])n1CCSC(=S)N1CCC(OS(C)(=O)=O)CC1` to `Cc1ncc([N+](=O)[O-])n1CCSC(=S)N1CCC(O)CC1`, the IC50 falls from over 1000 µg/mL to 930 µg/mL (≈ 2810 µM).

`Cc1ncc([N+](=O)[O-])n1CCSC(=S)N1CCC(OC(=O)CN2CCCCC2)CC1` and `Cc1ncc([N+](=O)[O-])n1CCSC(=S)N1CCC(OC(=O)CCl)CC1` are within 1.5-fold of each other in IC50: 760 µg/mL (≈ 1670 µM) for the first, 930 µg/mL (≈ 2290 µM) for the second.

`Cc1ncc([N+](=O)[O-])n1CCSC(=S)N1CCCC(C)C1` (stereo not given) and `Cc1ncc([N+](=O)[O-])n1CCSC(=S)N1CCC(C)CC1` are within 1.5-fold of each other in IC50: 170 µg/mL (≈ 518 µM) for the first, 190 µg/mL (≈ 578 µM) for the second.

Compared with `CCC1CCCCN1C(=S)SCCn1c([N+](=O)[O-])cnc1C` (stereo not given), `Cc1ncc([N+](=O)[O-])n1CCSC(=S)N1CCCCC1C` (stereo not given) is 1.8-fold higher in IC50: 94 µg/mL (≈ 274 µM) for the first, 170 µg/mL (≈ 518 µM) for the second.

First: Cc1ncc([N+](=O)[O-])n1CCSC(=S)N1CCC(=O)CC1
Second: Cc1ncc([N+](=O)[O-])n1CCSC(=S)N1C(C)CCCC1C (stereo not given)
The IC50 of the first is higher: over 1000 µg/mL for the first, 130 µg/mL (≈ 380 µM) for the second.
